Measurements as given in patent US20080045535A1, “Prokineticin 2 receptor antagonists” (priority 2005, published 2008).
Where “and” joins values, the source holds several entries; their conditions need not be identical. Equal values may be shown once.

Molecular target: T1, HEK 293 GPR73 (prokineticin 1 receptor) expressing cells (Homo sapiens, UniProt Q8TCW9)
T1 construct: expressed in transfected cells; host or cells: HEK 293
Experiment: PK1 functional assay: screening for PK1 antagonists on the FLIPR (calcium fluorescence)
Format: cell-based
Conditions: HEK 293 GPR73 cells; for inhibition at 10 µM: HEK293, compound at 10 μM, read-out: Ca^2+ Mobilization % Inh @10 μM; for inhibition at 10 µM / Ca^2+ Mobilization % Inh @10 μM: multiple values = repeat tests; for IC50: PK1 ligand at EC50, multiple values = repeat tests, read-out: Ca^2+ Mobilization IC50; for Ca^2+ Mobilization % Inh @10 μM: compound at 10 μM
Method: At a time of 24 h prior to running the assay, in cell culture media (DMEM containing high Glucose and L-glutamine, 10% FBS, 1% Pen/Streptomycin, 1% Sodium Pyruvate, 20 mM HEPES, Zeocin 200 mg/L), 100 μL of 1.3*10^6/ml HEK 293 GPR73 (prokineticin 1 receptor) expressing cells were plated in a 96 well poly-d-lysine coated plate (Costar), and incubated at 37 C and 5% CO2. On the day in which the assay was run, the media was removed and 200 μL of 5× Calcium Plus Dye (Molecular Devices) which was previously resuspended with 200 mL of assay buffer [HBSS w/Ca^2+ and Mg^2+ w/o phenol red, 20 mM HEPES, 0.1% BSA, 10 mL probenecid (710 mg probenecid in 5 mL of 1N NaOH, to which was then added 5 mL HBSS containing 20 mM HEPES)] was added to each well of the 96-well plate. The plate was incubated at 37 C and 5% CO2 for 30 min in dark. The plate was removed and allowed to reach RT for 15 min in the dark. The assay was then run on the FLIPR. […] Baseline is described as the amount of relative fluorescence read when buffer alone is added to cells. Baseline was subtracted from all wells. Percent of control was calculated as follows:
(Baseline subtracted well value is divided by baseline subtracted max value)*100.
Percent inhibition is 100 minus the percent of control value.
IC50 values were calculated using GraphPad Prism.
Table 2 includes data generated from the PK1 functional assay described in Example 2.

T1 sequence (Q8TCW9 whole entry): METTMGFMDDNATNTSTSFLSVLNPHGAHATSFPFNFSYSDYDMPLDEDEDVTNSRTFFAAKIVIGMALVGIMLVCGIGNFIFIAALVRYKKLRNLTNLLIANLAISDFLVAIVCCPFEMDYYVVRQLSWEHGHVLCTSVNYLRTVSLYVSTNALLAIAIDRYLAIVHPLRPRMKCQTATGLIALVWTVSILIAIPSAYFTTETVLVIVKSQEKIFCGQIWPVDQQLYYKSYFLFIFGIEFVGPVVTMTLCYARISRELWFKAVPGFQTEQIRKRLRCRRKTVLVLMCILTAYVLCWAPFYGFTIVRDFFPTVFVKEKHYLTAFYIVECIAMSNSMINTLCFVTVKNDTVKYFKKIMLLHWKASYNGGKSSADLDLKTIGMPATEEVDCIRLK

SMILES: COc1ccc(Cn2c(NCCNC(=N)NC#N)nc(=O)n(Cc3ccc(Cl)c(Cl)c3)c2=O)cc1 [Cpd 28, N-{2-[5-(3,4-Dichloro-benzyl)-1-(4-methoxy-benzyl)-4,6-dioxo-1,4,5,6-tetrahydro-[1,3,5]triazin-2-ylamino]-ethyl}-N′-cyano-guanidine]
- inhibition at 10 µM: 101%
- IC50: 710 nM

SMILES: CCOc1ccc(Cn2c(NCCNC(=N)N)nc(=O)n(Cc3ccc(Cl)c(Cl)c3)c2=O)cc1 [Cpd 29]
- inhibition at 10 µM: 101%
- IC50: 42 nM and 47 nM
- Ca^2+ Mobilization % Inh @10 μM (10 µM): 102%

SMILES: COc1ccc(Cn2c(NCCNC(=N)N)nc(=O)n(Cc3ccc(Cl)cc3)c2=O)cc1 [Cpd 30]
- inhibition at 10 µM: 101%
- IC50: 9 nM and 19 nM
- Ca^2+ Mobilization % Inh @10 μM (10 µM): 103%

SMILES: COc1ccc(Cn2c(NCCNC(=N)N)nc(=O)n(Cc3ccc(OC)cc3)c2=O)cc1 [Cpd 31]
- inhibition at 10 µM: 101%
- IC50: 9 nM and 21 nM
- Ca^2+ Mobilization % Inh @10 μM (10 µM): 102%

SMILES: COc1ccc(Cn2c(NCCCCNC(=N)N)nc(=O)n(Cc3ccc(Cl)c(Cl)c3)c2=O)cc1 [Cpd 32]
- inhibition at 10 µM: 88%
- IC50: 601 nM and 781 nM
- Ca^2+ Mobilization % Inh @10 μM (10 µM): 86%

SMILES: COc1ccc(CCn2c(NCCNC(=N)N)nc(=O)n(Cc3ccc(F)cc3)c2=O)cc1 [Cpd 33]
- inhibition at 10 µM: 66%
- IC50: 2860 nM

SMILES: N=C(N)NCCNc1nc(=O)n(Cc2ccc(Cl)c(Cl)c2)c(=O)n1Cc1ccc(OC2CCCC2)cc1 [Cpd 36]
- inhibition at 10 µM: 77%
- IC50: 1320 nM

SMILES: CSc1ccc(Cn2c(NCCNC(=N)N)nc(=O)n(Cc3ccc(Cl)c(Cl)c3)c2=O)cc1 [Cpd 37]
- inhibition at 10 µM: 98%
- IC50: 38 nM and 201 nM and 326 nM
- Ca^2+ Mobilization % Inh @10 μM (10 µM): 100% and 98% and 99%

SMILES: CCc1ccc(Cn2c(NCCNC(=N)N)nc(=O)n(Cc3ccc(Cl)c(Cl)c3)c2=O)cc1 [Cpd 38]
- inhibition at 10 µM: 98%
- IC50: 55 nM and 178 nM and 194 nM
- Ca^2+ Mobilization % Inh @10 μM (10 µM): 94% and 98%

SMILES: COc1ccc(Cn2c(NCCNC(=N)N)nc(=O)n(Cc3cccc(Cl)c3)c2=O)cc1 [Cpd 39]
- inhibition at 10 µM: 81%
- IC50: 909 nM

SMILES: N=C(N)NCCNc1nc(=O)n(Cc2ccc(Cl)c(Cl)c2)c(=O)n1Cc1ccc(OC(F)(F)F)cc1 [Cpd 40]
- inhibition at 10 µM: 98%
- IC50: 248 nM

SMILES: N=C(N)NCCNc1nc(=O)n(Cc2ccc(Cl)c(Cl)c2)c(=O)n1Cc1ccc(OC(F)F)cc1 [Cpd 41]
- inhibition at 10 µM: 101%
- IC50: 27 nM and 47 nM and 64 nM
- Ca^2+ Mobilization % Inh @10 μM (10 µM): 100% and 99%

SMILES: COc1ccc(Cn2c(N[C@H]3CCCC[C@@H]3NC(=N)N)nc(=O)n(Cc3ccc(Cl)c(Cl)c3)c2=O)cc1 [Cpd 43]
- inhibition at 10 µM: 31%
- IC50: > 10000 nM

SMILES: COc1ccc(Cn2c(NCCNC(=N)N)nc(=O)n(Cc3ccc(SC)cc3)c2=O)cc1 [Cpd 45]
- inhibition at 10 µM: 103%
- IC50: 18 nM

SMILES: CCc1ccc(Cn2c(=O)nc(NCCNC(=N)N)n(Cc3ccc(OC)cc3)c2=O)cc1 [Cpd 46, N-{2-[5-(4-Ethyl-benzyl)-1-(4-methoxy-benzyl)-4,6-dioxo-1,4,5,6-tetrahydro-[1,3,5]triazin-2-ylamino]-ethyl}-guanidine]
- inhibition at 10 µM: 101%
- IC50: 58 nM

SMILES: COc1ccc(Cn2c(NCCNC3=NCC(=O)N3)nc(=O)n(Cc3ccc(Cl)c(Cl)c3)c2=O)cc1 [Cpd 48, 3-(3,4-Dichloro-benzyl)-1-(4-methoxy-benzyl)-6-[2-(5-oxo-4,5-dihydro-1H-imidazol-2-ylamino)-ethylamino]-1H-[1,3,5]triazine-2,4-dione]
- inhibition at 10 µM: 94%
- IC50: 798 nM

SMILES: COc1ccc(Cn2c(NCCNC3=NCCN3)nc(=O)n(Cc3ccc(Cl)c(Cl)c3)c2=O)cc1 [Cpd 49, 3-(3,4-Dichloro-benzyl)-6-[2-(4,5-dihydro-1H-imidazol-2-ylamino)-ethylamino]-1-(4-methoxy-benzyl)-1H-[1,3,5]triazine-2,4-dione]
- inhibition at 10 µM: 75%
- IC50: 2000 nM

SMILES: CC(=O)Nc1ccc(Cn2c(NCCNC(=N)N)nc(=O)n(Cc3ccc(Cl)c(Cl)c3)c2=O)cc1 [Cpd 50]
- inhibition at 10 µM: 96%
- IC50: 248 nM

SMILES: N=C(N)NCCNc1nc(=O)n(Cc2ccc(Cl)c(Cl)c2)c(=O)n1Cc1ccc(C(N)=O)cc1 [Cpd 51, 4-[3-(3,4-Dichlorobenzyl)-6-(2-guanidinoethylamino)-2,4-dioxo-3,4-dihydro-2H-[1,3,5]triazin-1-yl-methyl]-benzamide]
- inhibition at 10 µM: 100%
- IC50: 47 nM

SMILES: CCOc1cccc(Cn2c(NCCNC(=N)N)nc(=O)n(Cc3ccc(Cl)c(Cl)c3)c2=O)c1 [Cpd 52]
- inhibition at 10 µM: 58%
- IC50: 6520 nM

SMILES: CCCNC(=N)NCCNc1nc(=O)n(Cc2ccc(Cl)c(Cl)c2)c(=O)n1Cc1ccc(OC)cc1 [Cpd 54]
- inhibition at 10 µM: 98%
- IC50: 14 nM and 6 nM
- Ca^2+ Mobilization % Inh @10 μM (10 µM): 101%

SMILES: COc1ccc(Cn2c(N3CCC(NC(=N)N)C3)nc(=O)n(Cc3ccc(Cl)c(Cl)c3)c2=O)cc1 (stereo not shown) [Cpd 55]
- inhibition at 10 µM: 58%
- IC50: 6730 nM

SMILES: COc1ccc(Cn2c(N[C@@H]3CCCC[C@H]3NC(=N)N)nc(=O)n(Cc3ccc(Cl)cc3)c2=O)cc1 [Cpd 56]
- inhibition at 10 µM: 98%
- IC50: 61 nM

SMILES: N=C(N)NCCNc1nc(=O)n(Cc2ccc(Cl)c(Cl)c2)c(=O)n1Cc1cccc(OC(F)F)c1 [Cpd 57]
- inhibition at 10 µM: 51%
- IC50: 8210 nM

SMILES: COc1ccc(Cn2c(NCCN(C(=N)N)C(C)C)nc(=O)n(Cc3ccc(Cl)c(Cl)c3)c2=O)cc1 [Cpd 58, N-{2-[5-(3,4-Dichloro-benzyl)-1-(4-methoxy-benzyl)-4,6-dioxo-1,4,5,6-tetrahydro-[1,3,5]triazin-2-ylamino]-ethyl}-N-isopropyl-guanidine]
- IC50: 16 nM
- Ca^2+ Mobilization % Inh @10 μM (10 µM): 102% and 99% and 98%

SMILES: CCN(CCNc1nc(=O)n(Cc2ccc(Cl)c(Cl)c2)c(=O)n1Cc1ccc(OC)cc1)C(=N)N [Cpd 59]
- inhibition at 10 µM: 99%
- IC50: 50 nM and 35 nM
- Ca^2+ Mobilization % Inh @10 μM (10 µM): 100%

SMILES: COc1ccc(Cn2c(NCCN3CCNC3=N)nc(=O)n(Cc3ccc(Cl)c(Cl)c3)c2=O)cc1 [Cpd 60, 3-(3,4-Dichloro-benzyl)-6-[2-(2-imino-imidazolidin-1-yl)-ethylamino]-1-(4-methoxy-benzyl)-1H-[1,3,5]triazine-2,4-dione]
- inhibition at 10 µM: 100%
- IC50: 54 nM

SMILES: CCCCNC(=N)NCCNc1nc(=O)n(Cc2ccc(Cl)c(Cl)c2)c(=O)n1Cc1ccc(OC)cc1 [Cpd 61]
- inhibition at 10 µM: 102%
- IC50: 45 nM

SMILES: COc1ccc(Cn2c(NCCNC(=N)NC3CCCCC3)nc(=O)n(Cc3ccc(Cl)c(Cl)c3)c2=O)cc1 [Cpd 62]
- inhibition at 10 µM: 98%
- IC50: 59 nM

SMILES: COc1ccc(Cn2c(NCCNC(=N)NCc3ccccc3)nc(=O)n(Cc3ccc(Cl)c(Cl)c3)c2=O)cc1 [Cpd 63]
- inhibition at 10 µM: 101%
- IC50: 120 nM

SMILES: COc1ccc(Cn2c(NCCNC(=N)NCC3CCCO3)nc(=O)n(Cc3ccc(Cl)c(Cl)c3)c2=O)cc1 (stereo not shown) [Cpd 64]
- inhibition at 10 µM: 100%
- IC50: 72 nM

SMILES: COc1ccc(Cn2c(NCCNC(=N)NCCc3ccccc3)nc(=O)n(Cc3ccc(Cl)c(Cl)c3)c2=O)cc1 [Cpd 65]
- IC50: 485 nM
- Ca^2+ Mobilization % Inh @10 μM: 88%

SMILES: COc1ccc(Cn2c(NCCNC(=N)NCc3ccco3)nc(=O)n(Cc3ccc(Cl)c(Cl)c3)c2=O)cc1 [Cpd 66]
- inhibition at 10 µM: 99%
- IC50: 23 nM

SMILES: COCCNC(=N)NCCNc1nc(=O)n(Cc2ccc(Cl)c(Cl)c2)c(=O)n1Cc1ccc(OC)cc1 [Cpd 67]
- inhibition at 10 µM: 99%
- IC50: 18 nM

SMILES: COc1ccc(Cn2c(NCCCNC(=N)N)nc(=O)n(Cc3ccc(Cl)c(Cl)c3)c2=O)cc1 [Cpd 68]
- inhibition at 10 µM: 84%
- IC50: 1210 nM
